Data on 15 compounds can be found in ChEMBL document CHEMBL1139118, “A novel, non-substrate-based series of glycine type 1 transporter inhibitors derived from high-throughput screening” (Bioorg Med Chem Lett, 2007).

A value given as a limit tells only on which side of the number the result lay.

Data set [1] deals with 5-hydroxytryptamine receptor 1B (Homo sapiens, UniProt P28222). Briefly: Displacement of [3H]5-hydroxytrytamine from human 5HT1B receptor expressed in HEK293 cells. Format: cell-based.
Sequence of 5-hydroxytryptamine receptor 1B (P28222 whole entry): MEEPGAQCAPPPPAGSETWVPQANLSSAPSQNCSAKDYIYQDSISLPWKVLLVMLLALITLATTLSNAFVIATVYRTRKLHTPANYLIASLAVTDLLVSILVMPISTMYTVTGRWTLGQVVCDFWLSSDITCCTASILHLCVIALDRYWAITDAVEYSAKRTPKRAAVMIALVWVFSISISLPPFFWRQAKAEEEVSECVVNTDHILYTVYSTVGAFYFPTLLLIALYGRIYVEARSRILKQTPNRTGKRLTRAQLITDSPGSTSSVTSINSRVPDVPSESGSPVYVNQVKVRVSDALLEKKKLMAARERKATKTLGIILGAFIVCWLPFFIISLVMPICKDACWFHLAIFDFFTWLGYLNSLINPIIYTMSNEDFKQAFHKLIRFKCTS
The target of data set [2] is T1, Sodium- and chloride-dependent glycine transporter 1 (Homo sapiens, UniProt P48067).
T1 sequence (P48067 whole entry): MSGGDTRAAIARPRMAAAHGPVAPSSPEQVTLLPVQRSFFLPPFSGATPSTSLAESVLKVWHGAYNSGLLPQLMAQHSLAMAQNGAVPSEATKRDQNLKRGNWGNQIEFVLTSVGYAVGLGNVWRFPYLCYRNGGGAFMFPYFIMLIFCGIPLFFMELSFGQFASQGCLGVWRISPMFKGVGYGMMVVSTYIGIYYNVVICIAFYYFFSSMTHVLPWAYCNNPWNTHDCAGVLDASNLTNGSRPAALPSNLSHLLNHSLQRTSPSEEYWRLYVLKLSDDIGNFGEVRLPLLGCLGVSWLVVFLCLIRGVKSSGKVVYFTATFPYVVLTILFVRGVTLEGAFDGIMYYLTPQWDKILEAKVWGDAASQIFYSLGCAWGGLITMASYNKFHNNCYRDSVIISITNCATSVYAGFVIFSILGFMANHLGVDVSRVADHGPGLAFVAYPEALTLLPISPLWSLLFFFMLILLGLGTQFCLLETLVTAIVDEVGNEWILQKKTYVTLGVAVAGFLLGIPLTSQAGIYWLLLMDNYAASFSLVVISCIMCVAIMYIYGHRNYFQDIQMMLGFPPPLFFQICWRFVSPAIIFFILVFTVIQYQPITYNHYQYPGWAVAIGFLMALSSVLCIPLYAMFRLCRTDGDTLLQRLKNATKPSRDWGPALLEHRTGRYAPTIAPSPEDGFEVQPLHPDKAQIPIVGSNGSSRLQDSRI
As to the kind of experiment: Displacement of [3H]NPTS from human GlyT1C expressed in HEK293 cells. Format: cell-based.

For data set [3], the target named is CYP2D6 (Homo sapiens, UniProt P10635). As to the kind of experiment: Inhibition of human recombinant CYP2D6 at 1.5 uM. Format: ADME.
Sequence of CYP2D6 (P10635 whole entry): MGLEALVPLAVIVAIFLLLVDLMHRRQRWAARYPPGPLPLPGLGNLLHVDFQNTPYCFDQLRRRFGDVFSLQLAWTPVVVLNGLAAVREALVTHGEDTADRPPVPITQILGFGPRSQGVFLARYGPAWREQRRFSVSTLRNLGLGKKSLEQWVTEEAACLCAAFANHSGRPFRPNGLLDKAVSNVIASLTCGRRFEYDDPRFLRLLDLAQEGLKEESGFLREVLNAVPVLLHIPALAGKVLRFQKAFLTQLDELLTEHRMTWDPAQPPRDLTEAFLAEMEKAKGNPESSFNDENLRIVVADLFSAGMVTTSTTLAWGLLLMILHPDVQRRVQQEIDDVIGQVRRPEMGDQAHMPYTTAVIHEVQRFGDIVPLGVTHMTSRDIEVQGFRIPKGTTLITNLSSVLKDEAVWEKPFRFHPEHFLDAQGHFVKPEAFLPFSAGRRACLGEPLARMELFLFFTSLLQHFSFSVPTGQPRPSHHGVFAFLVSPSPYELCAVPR
Data set [4] deals with Voltage-gated inwardly rectifying potassium channel KCNH2 (Homo sapiens, UniProt Q12809). As to the kind of experiment: Displacement of [3H]dofetilide from human ERG channel expressed in HEK293 cells.
Sequence of Voltage-gated inwardly rectifying potassium channel KCNH2 (Q12809 whole entry): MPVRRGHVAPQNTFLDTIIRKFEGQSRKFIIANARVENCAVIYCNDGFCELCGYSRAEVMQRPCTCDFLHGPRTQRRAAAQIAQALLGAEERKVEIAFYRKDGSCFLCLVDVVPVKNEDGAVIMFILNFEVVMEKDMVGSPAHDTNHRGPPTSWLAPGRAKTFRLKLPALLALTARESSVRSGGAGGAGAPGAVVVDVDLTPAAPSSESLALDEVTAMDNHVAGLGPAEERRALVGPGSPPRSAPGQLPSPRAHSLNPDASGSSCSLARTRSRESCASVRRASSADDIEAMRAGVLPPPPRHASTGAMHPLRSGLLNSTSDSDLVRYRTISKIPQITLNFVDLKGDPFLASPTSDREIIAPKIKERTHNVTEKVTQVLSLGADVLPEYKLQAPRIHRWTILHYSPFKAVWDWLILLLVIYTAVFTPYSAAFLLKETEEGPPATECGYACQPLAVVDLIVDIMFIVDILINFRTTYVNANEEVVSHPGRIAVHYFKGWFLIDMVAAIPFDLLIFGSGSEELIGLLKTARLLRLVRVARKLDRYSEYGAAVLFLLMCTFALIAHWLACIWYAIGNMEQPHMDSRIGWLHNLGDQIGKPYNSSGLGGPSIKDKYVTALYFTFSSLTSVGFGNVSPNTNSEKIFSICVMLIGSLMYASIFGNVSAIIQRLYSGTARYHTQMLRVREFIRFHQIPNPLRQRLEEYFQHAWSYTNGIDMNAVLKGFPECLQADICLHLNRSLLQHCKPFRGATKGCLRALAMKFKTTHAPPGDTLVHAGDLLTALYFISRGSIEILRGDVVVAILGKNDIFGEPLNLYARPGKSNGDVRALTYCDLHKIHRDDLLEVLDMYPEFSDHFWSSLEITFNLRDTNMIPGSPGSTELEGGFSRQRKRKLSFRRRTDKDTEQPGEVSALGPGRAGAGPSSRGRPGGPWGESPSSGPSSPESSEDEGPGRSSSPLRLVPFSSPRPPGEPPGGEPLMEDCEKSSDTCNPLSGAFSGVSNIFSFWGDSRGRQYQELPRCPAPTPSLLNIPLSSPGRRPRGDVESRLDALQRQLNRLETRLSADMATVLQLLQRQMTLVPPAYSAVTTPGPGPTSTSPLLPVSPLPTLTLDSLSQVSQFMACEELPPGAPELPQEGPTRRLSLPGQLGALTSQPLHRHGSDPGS
Data set [5] can be described thus: Metabolic stability in human liver microsomes assessed as half life. Format: ADME, Microsome.
Data set [6] concerns the target T2, Sodium- and chloride-dependent glycine transporter 2 (Homo sapiens, UniProt Q9Y345).
T2 sequence (Q9Y345 whole entry): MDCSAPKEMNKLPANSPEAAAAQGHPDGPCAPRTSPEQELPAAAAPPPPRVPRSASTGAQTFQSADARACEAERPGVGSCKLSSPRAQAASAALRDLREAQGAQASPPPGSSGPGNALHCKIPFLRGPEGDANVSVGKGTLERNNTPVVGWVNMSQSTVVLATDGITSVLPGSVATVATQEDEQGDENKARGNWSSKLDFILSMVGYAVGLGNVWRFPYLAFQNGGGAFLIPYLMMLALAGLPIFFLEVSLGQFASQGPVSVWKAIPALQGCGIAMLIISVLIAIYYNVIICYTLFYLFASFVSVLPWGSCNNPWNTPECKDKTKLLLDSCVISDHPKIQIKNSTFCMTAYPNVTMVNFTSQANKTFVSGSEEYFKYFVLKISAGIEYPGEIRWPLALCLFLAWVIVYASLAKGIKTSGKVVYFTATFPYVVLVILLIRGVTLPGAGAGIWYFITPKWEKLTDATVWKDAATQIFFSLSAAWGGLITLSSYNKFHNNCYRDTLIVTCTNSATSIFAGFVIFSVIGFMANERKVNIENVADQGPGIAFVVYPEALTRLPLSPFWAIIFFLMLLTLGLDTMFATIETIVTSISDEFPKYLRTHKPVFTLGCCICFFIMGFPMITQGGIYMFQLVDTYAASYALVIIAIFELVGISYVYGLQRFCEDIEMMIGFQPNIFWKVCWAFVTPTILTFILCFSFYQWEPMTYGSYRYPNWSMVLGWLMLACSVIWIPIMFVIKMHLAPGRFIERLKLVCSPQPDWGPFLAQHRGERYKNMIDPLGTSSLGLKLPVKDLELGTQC
Briefly: Inhibition of [3H]glycine uptake at human GlyT2 expressed in HEK293 cells. Format: cell-based.

In the case of `CC(C)N1CCN(C2CCc3ccc(OCc4noc(-c5ccc(Cl)cc5)n4)cc32)CC1` (configuration not stated), the Ki is 31 nM in data set [1], 394 nM in data set [2] and 98.1 nM in data set [4]. For the same compound, the inhibition at 1.5 µM in data set [3] worked out at 43%. In addition, the half-life in data set [5] stood at 13 min.
With `CC1CC(N2CCN(C3CCc4ccc(OCc5noc(-c6ccc(Cl)cc6)n5)cc43)CC2)CC1C` (configuration not stated), the values for the inhibition constant Ki in data set [1] and in data set [2] were 414 nM and 134 nM, respectively. In addition, the inhibition at 1.5 µM in data set [3] was 29%. Also, the half-life in data set [5] came to 7 min.
In data set [6], `OCC1(N2CCN(C3CCc4ccc(OCc5noc(-c6ccccc6F)n5)cc43)CC2)CCCC1` (configuration not stated) showed an IC50 of 31.5 nM. Also, the inhibitory constant (Ki) in data set [2] was 61.4 nM. Besides, the inhibition at 1.5 µM in data set [3] was determined as 85%. Also, the half-life in data set [5] amounted to 14 min.
As for `OCC1CCCN(CCCC2CCCc3ccc(OCc4ccc(-c5ccccc5F)cn4)cc32)C1` (configuration not stated), the half-maximal inhibitory concentration (IC50) in data set [6] was 401 nM. The Ki stood at 11 nM in data set [2] and 410 nM in data set [4]. The inhibition at 1.5 µM in data set [3] stood at 30%. Further, in data set [5], the half-life was 24 min.
`CCN(Cc1cccc(OCc2noc(-c3ccccc3F)n2)c1)C1CCN(C2CC(C)C(C)C2)C1` (configuration not stated) showed an IC50 in data set [6] of 857 nM. In addition, the values for the inhibitory constant (Ki) in data set [2] and in data set [4] were 85.3 nM and 222 nM, respectively. In addition, the inhibition at 1.5 µM in data set [3] came out at 84%. In data set [5], the half-life was found to be 26 min.
As for `CN1CCN(c2cccc3ccc(OCc4noc(-c5ccc(Cl)cc5)n4)cc23)CC1`, the Ki in data set [1] was below 1 nM; in data set [2], 500 nM. Further, the inhibition at 1.5 µM in data set [3] worked out at 75%. For the same compound, the half-life in data set [5] was 22 min.
In data set [1], `OCC1(N2CCN(C3CCc4ccc(OCc5noc(-c6ccc(Cl)cc6)n5)cc43)CC2)CCCC1` (configuration not stated) came in with a Ki of 1490 nM. Besides, in data set [3], the inhibition at 1.5 µM is 47%.
`Fc1ccccc1-c1nc(COc2ccc3c(c2)C(N2CCN(C4CCCC4)CC2)CC3)no1` (configuration not stated) registered a half-maximal inhibitory concentration (IC50) in data set [6] of 531 nM. The same compound had an inhibitory constant (Ki) in data set [2] of 66.8 nM. The inhibition at 1.5 µM in data set [3] was 94%. For the same compound, in data set [5], the half-life was found to be 12 min.
In the case of `OCC1(NCCCC2CCc3ccc(OCc4noc(-c5ccc(Cl)cc5)n4)cc32)CCCC1` (configuration not stated), the figures for the inhibition constant (Ki) in data set [1], in data set [2] and in data set [4] were above 300 nM, 108 nM and 525 nM, respectively. Also, the inhibition at 1.5 µM in data set [3] was found to be 70%. Also, the half-life in data set [5] was 12 min.
Consider `OCC1CCCN(CCCC2CCCc3ccc(OCc4noc(-c5ccccc5F)n4)cc32)C1` (configuration not stated), for which the concentration for half-maximal inhibition (IC50) in data set [6] is 385 nM. The figures for the Ki in data set [2] and in data set [4] were 10.2 nM and 1300 nM, respectively. Besides, the inhibition at 1.5 µM in data set [3] is 43%. In addition, the half-life in data set [5] stood at 17 min.
For the compound `OCC1CCCN(CCCC2CCCc3ccc(OCc4noc(-c5ccc(Cl)cc5)n4)cc32)C1` (stereo in doubt; 8), the Ki in data set [1] is above 1000 nM; in data set [2] it was 15.9 nM; in data set [4] it was 271 nM. Moreover, in data set [6], the concentration for half-maximal inhibition (IC50) stood at 319 nM. In addition, in data set [3], the inhibition at 1.5 µM worked out at 96%. Besides, in data set [5], the half-life was determined as 22 min.
The compound `OCC1CCCN(CCCC2CCCc3ccc(OCc4noc(-c5ccc(Cl)cc5)n4)cc32)C1` (stereo in doubt; 8A) gave a half-maximal inhibitory concentration (IC50) in data set [2] of 38 nM. This compound also registered an inhibition constant Ki in data set [4] of 381 nM.
The corresponding values for `OCC1CCCN(CCCC2CCCc3ccc(OCc4noc(-c5ccc(Cl)cc5)n4)cc32)C1` (stereo in doubt; 8B) are 24 nM and 214 nM.
The corresponding values for `OCC1CCCN(CCCC2CCCc3ccc(OCc4noc(-c5ccc(Cl)cc5)n4)cc32)C1` (stereo in doubt; 8C) are 31 nM and 219 nM.
The corresponding values for `OCC1CCCN(CCCC2CCCc3ccc(OCc4noc(-c5ccc(Cl)cc5)n4)cc32)C1` (stereo in doubt; 8D) are 26 nM and 206 nM.
